Target: T1, CRTH2 (Homo sapiens, UniProt Q9Y5Y4)
T1 construct: expressed in transfected cells; host or cells: CHO cells
T1 sequence (Q9Y5Y4 1-395): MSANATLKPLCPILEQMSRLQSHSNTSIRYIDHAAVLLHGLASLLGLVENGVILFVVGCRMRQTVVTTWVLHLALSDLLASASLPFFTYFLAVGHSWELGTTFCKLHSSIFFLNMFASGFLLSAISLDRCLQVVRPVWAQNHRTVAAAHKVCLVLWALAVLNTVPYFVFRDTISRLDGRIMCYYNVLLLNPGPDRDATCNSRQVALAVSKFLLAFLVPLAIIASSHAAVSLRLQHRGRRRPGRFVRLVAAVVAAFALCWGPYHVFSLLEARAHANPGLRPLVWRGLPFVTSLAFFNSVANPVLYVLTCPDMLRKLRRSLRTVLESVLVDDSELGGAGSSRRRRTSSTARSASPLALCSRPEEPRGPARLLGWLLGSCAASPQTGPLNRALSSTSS
Experiment: FRET based competitive immunoassay (cAMP) in CRTH2 expressing CHO cells
Type: cell-based
Settings: CRTH2 expressing CHO cells incubated with forskolin and PGD2; Eu3+ cryptate-labeled anti-cAMP and d2-labeled cAMP
Procedure: FRET Assay: To evaluate potency compounds were tested in a FRET based competitive immunoassay in which CRTH2 expressing CHO cells were incubated in the presence of forskolin and PGD2 along with Eu3+ cryptate-labeled anti-cAMP and d2-labeled cAMP.

| SMILES | IC50 [nM] |
| --- | --- |
| Cc1c(-c2ccc(=O)n(Cc3ccccc3)c2)c2cc(F)ccc2n1CC(=O)NS(C)(=O)=O [Example 313, 2-(3-(1-Benzyl-6-oxo-1,6-dihydropyridin-3-yl)-5-fluoro-2-methyl-1H-indol-1-yl)-N-(methyl-sulfonyl)acetamide] | 32 |
| Cc1c(-c2ccc(=O)n(Cc3ccccc3)n2)c2cc(F)ccc2n1Cc1ccccc1 [Example 262c, 6-(1-benzyl-5-fluoro-2-methyl-1H-indol-3-yl)-2-benzylpyridazin-3(2H)-one] | > 10000 |
| Cc1c(-c2ccc(=O)n(Cc3ccc(F)cc3F)n2)c2cc(Cl)ccc2n1CC(=O)O [Example 68, 2-(5-chloro-3-(1-(2,4-difluorobenzyl)-6-oxo-1,6-dihydropyridazin-3-yl)-2-methyl-1H-indol-1-yl)acetic acid] | 10 |
| Cc1c(-c2ccc(=O)n(Cc3ccc(F)cc3)c2)c2ccccc2n1CC(=O)O [Example 283, 2-(3-(1-(4-fluorobenzyl)-6-oxo-1,6-dihydropyridin-3-yl)-2-methyl-1H-indol-1-yl)acetic acid] | 16 |
| Cc1c(-c2ccc(=O)n(Cc3cccc(F)c3C(F)(F)F)n2)c2cc(Cl)ccc2n1CC(=O)O [Example 143, 2-(5-chloro-3-(1-(3-fluoro-2-(trifluoromethyl)benzyl)-6-oxo-1,6-dihydro-pyridazin-3-yl)-2-methyl-1H-indol-1-yl)acetic acid] | 55 |
| Cc1c(-c2nn(Cc3ccccc3F)c(=O)c3ccccc23)c2cc(Cl)ccc2n1CC(=O)O [Example 98, 2-(5-Chloro-3-(3-(2-fluorobenzyl)-4-oxo-3,4-dihydrophthalazin-1-yl)-2-methyl-1H-indol-1-yl)acetic acid] | 17 |
| Cc1c(Cc2cn(Cc3ccccc3)c(=O)c3ccccc23)c2cc(F)ccc2n1CC(=O)O [Example 85, 2-(3-((2-benzyl-1-oxo-1,2-dihydroisoquinolin-4-yl)methyl)-5-fluoro-2-methyl-1H-indol-1-yl)acetic acid] | 62 |
| Cc1c(-c2ccc(=O)n(Cc3ccc(F)cc3)n2)c2cc(Cl)ccc2n1CC(=O)O [Example 139, 2-(5-Chloro-3-(1-(4-fluorobenzyl)-6-oxo-1,6-dihydropyridazin-3-yl)-2-methyl-1H-indol-1-yl)acetic acid] | 24 |
| Cc1c(-c2ccc(=O)n(Cc3cccc(F)c3)c2)c2cc(Cl)ccc2n1CC(=O)O [Example 295, 2-(5-chloro-3-(1-(3-fluorobenzyl)-6-oxo-1,6-dihydropyridin-3-yl)-2-methyl-1H-indol-1-yl)acetic acid] | 11 |
| Cc1c(-c2nn(CCc3ccc(F)cc3)c(=O)c3ccccc23)c2cc(F)ccc2n1CC(=O)O [Example 227, 2-(5-fluoro-3-(3-(4-fluorophenethyl)-4-oxo-3,4-dihydrophthalazin-1-yl)-2-methyl-1H-indol-1-yl)acetic acid] | 3 |
| Cc1c(Cc2ccc(=O)n(Cc3ccc(F)cc3)n2)c2cc(F)ccc2n1CC(=O)O [Example 342, (3-{[1-(4-fluorobenzyl)-6-oxo-1,6-dihydropyridazin-3-yl]methyl}-5-fluoro-2-methyl-1H-indol-1-yl)acetic acid] | 13 |
| Cc1c(-c2nn(Cc3ccccc3)c(=O)c3ccccc23)c2ccccc2n1Cc1nn[nH]n1 [Example 51, 4-(1-((2H-Tetrazol-5-yl)methyl)-2-methyl-1H-indol-3-yl)-2-benzyl-phthalazin-1(2H)-one] | > 2000 |
| Cc1c(Cc2ccc(=O)n(Cc3cccc(F)c3F)c2)c2cc(Cl)ccc2n1CC(=O)O [Example 43, 2-(5-Chloro-3-((1-(2,3-difluorobenzyl)-6-oxo-1,6-dihydropyridin-3-yl)-methyl)-2-methyl-1H-indol-1-yl)acetic acid] | 9 |
| Cc1c(CC2=NN(CCCC(F)(F)F)C(=O)CC2)c2cc(F)ccc2n1CC(=O)O [Example 58, 2-(5-Fluoro-2-methyl-3-((6-oxo-1-(4,4,4-trifluorobutyl)-1,4,5,6-tetrahydro-pyridazin-3-yl)methyl)-1H-indol-1-yl)acetic acid] | 18 |
| Cc1c(-c2nn(Cc3cc(F)c(F)cc3F)c(=O)c3ccccc23)c2cc(Cl)ccc2n1CC(=O)O [Example 60, 2-(5-chloro-2-methyl-3-(4-oxo-3-(2,4,5-trifluorobenzyl)-3,4-dihydro-phthalazin-1-yl)-1H-indol-1-yl)acetic acid] | 11 |
| Cc1c(Cc2ccc(=O)n(Cc3ccc(F)cc3)c2)c2ccccc2n1CC(=O)O [Example 40, 2-(3-((1-(4-Fluorobenzyl)-6-oxo-1,6-dihydropyridin-3-yl)methyl)-2-methyl-1H-indol-1-yl)acetic acid] | 30 |

| SMILES | IC50 [nM] |
| --- | --- |
| Cc1c(-c2ccc(=O)n(Cc3cc(F)cc(F)c3)c2)c2cc(Cl)ccc2n1CC(=O)O [Example 294, 2-(5-Chloro-3-(1-(3,5-difluorobenzyl)-6-oxo-1,6-dihydropyridin-3-yl)-2-methyl-1H-indol-1-yl)acetic acid] | 2 |
| Cc1c(-c2ccc(=O)n(Cc3ccc(Cl)c(F)c3)n2)c2cc(Cl)ccc2n1CC(=O)O [Example 8, 2-(5-Chloro-3-(1-(4-chloro-3-fluorobenzyl)-6-oxo-1,6-dihydropyridazin-3-yl)-2-methyl-1H-indol-1-yl)acetic acid] | 5 |
| Cc1c(-c2ccc(=O)n(CC(F)(F)F)c2)c2ccccc2n1CC(=O)O [Example 279, 2-(2-methyl-3-(6-oxo-1-(2,2,2-trifluoroethyl)-1,6-dihydropyridin-3-yl)-1H-indol-1-yl)acetic acid] | 715 |
| CC(=O)Nc1cccc2c1c(Cc1ccc(=O)n(Cc3ccc(F)cc3F)n1)c(C)n2CC(=O)O [Example 55, 2-(4-Acetamido-3-((1-(2,4-difluorobenzyl)-6-oxo-1,6-dihydropyridazin-3-yl)-methyl)-2-methyl-1H-indol-1-yl)acetic acid] | > 2000 |
| Cc1c(-c2ccc(=O)n(Cc3nc4ccccc4s3)n2)c2cc(Cl)ccc2n1CC(=O)O [Example 141, 2-(3-(1-(benzo[d]thiazol-2-ylmethyl)-6-oxo-1,6-dihydropyridazin-3-yl)-5-chloro-2-methyl-1H-indol-1-yl)acetic acid] | 46 |
| Cc1c(-c2ccc(=O)n(CC3CC3)n2)c2cc(F)ccc2n1CC(=O)O [Example 161, 2-(3-(1-(cyclopropylmethyl)-6-oxo-1,6-dihydropyridazin-3-yl)-5-fluoro-2-methyl-1H-indol-1-yl)acetic acid] | 23 |
| Cc1c(-c2ccc(=O)n(Cc3cccc(F)c3C(F)(F)F)n2)c2cc(F)ccc2n1CC(=O)O [Example 156, 2-(5-fluoro-3-(1-(3-fluoro-2-(trifluoromethyl)benzyl)-6-oxo-1,6-dihydro-pyridazin-3-yl)-2-methyl-1H-indol-1-yl)acetic acid] | 25 |
| Cc1c(-c2nn(-c3ccc(C(F)(F)F)cc3)c(=O)c3ccccc23)c2cc(F)ccc2n1CC(=O)O [Example 206, 2-(5-fluoro-2-methyl-3-(4-oxo-3-(4-(trifluoromethyl)phenyl)-3,4-dihydrophthalazin-1-yl)-1H-indol-1-yl)acetic acid] | 320 |
| Cc1c(Cc2ccc(=O)n(Cc3cccc(F)c3)c2)c2cc(Cl)ccc2n1CC(=O)O [Example 45, 2-(5-Chloro-3-((1-(3-fluorobenzyl)-6-oxo-1,6-dihydropyridin-3-yl)methyl)-2-methyl-1H-indol-1-yl)acetic acid] | 5 |
| Cc1c(-c2ccc(=O)n(Cc3c(F)cccc3F)c2)c2cc(Cl)ccc2n1CC(=O)O [Example 291, 2-(5-chloro-3-(1-(2,6-difluorobenzyl)-6-oxo-1,6-dihydropyridin-3-yl)-2-methyl-1H-indol-1-yl)acetic acid] | 8 |
| Cc1c(-c2ccc(=O)n(Cc3ccc(F)cc3)c2)c2cc(F)ccc2n1CC(=O)O [Example 267, 2-(5-fluoro-3-(1-(4-fluorobenzyl)-6-oxo-1,6-dihydropyridin-3-yl)-2-methyl-1H-indol-1-yl)acetic acid] | 6 |
| Cc1c(-c2nn(CC3CC3)c(=O)c3ccccc23)c2ccccc2n1CC(=O)O [Example 176, 2-(3-(3-(cyclopropylmethyl)-4-oxo-3,4-dihydrophthalazin-1-yl)-2-methyl-1H-indol-1-yl)acetic acid] | 123 |
| Cc1c(-c2ccc(=O)n(Cc3ccc(S(C)(=O)=O)cc3)n2)c2cc(F)ccc2n1CC(=O)O [Example 73, 2-(5-fluoro-2-methyl-3-(1-(4-(methylsulfonyl)benzyl)-6-oxo-1,6-dihydro-pyridazin-3-yl)-1H-indol-1-yl)acetic acid] | 76 |
| Cc1c(-c2nn(CC(F)(F)F)c(=O)c3ccccc23)c2cc(F)ccc2n1CC(=O)O [Example 124, 2-(5-fluoro-2-methyl-3-(4-oxo-3-(2,2,2-trifluoroethyl)-3,4-dihydro-phthalazin-1-yl)-1H-indol-1-yl)acetic acid] | 8 |
| Cc1c(-c2nn(Cc3ccc(Cl)cc3)c(=O)c3ccccc23)c2cc(Cl)ccc2n1CC(=O)O [Example 1, 2-(5-Chloro-3-(3-(4-chlorobenzyl)-4-oxo-3,4-dihydrophthalazin-1-yl)-2-methyl-1H-indol-1-yl)acetic acid] | 15 |
| Cc1c(-c2nn(Cc3ccccc3F)c(=O)c3ccccc23)c2cc(F)ccc2n1CC(=O)O [Example 113, 2-(5-fluoro-3-(3-(2-fluorobenzyl)-4-oxo-3,4-dihydrophthalazin-1-yl)-2-methyl-1H-indol-1-yl)acetic acid] | 14 |
